Source: patent publication US8093265B2, “Bicycloheteroaryl compounds as P2X7 modulators and uses thereof” (Renovis, Inc., priority 2007, dated 2012)

Target: T1, P2X7 receptor (Homo sapiens, UniProt Q99572)
T1 construct: host or cells: THP-1 cells differentiated with LPS and IFN-γ
T1 sequence (Q99572 1-595): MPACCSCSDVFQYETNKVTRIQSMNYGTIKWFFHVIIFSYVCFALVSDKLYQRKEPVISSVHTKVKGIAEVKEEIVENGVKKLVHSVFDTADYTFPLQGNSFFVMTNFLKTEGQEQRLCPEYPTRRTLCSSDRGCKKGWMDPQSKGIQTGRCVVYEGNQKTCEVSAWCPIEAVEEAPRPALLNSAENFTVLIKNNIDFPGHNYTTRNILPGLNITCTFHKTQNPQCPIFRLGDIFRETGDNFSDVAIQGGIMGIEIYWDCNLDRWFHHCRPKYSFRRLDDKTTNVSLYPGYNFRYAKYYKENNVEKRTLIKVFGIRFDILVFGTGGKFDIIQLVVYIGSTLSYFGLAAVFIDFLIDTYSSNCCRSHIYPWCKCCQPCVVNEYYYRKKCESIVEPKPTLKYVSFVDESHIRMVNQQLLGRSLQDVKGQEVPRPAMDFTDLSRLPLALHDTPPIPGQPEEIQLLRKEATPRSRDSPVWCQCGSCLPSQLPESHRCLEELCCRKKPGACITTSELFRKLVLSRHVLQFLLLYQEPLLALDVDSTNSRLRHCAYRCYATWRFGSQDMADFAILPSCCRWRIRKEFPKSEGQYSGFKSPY
Assay: IL-1β release assay in differentiated THP-1 cells (Example 9)
Assay type: cell-based
Details: THP-1 cells differentiated with LPS and IFN-γ; 30 min pretreatment; BzATP 250 uM; IL-1β by ELISA
Method: THP-1 cells (ATCC Cat #285-IF-100) are plated in 96 well plates at a concentration of 200,000 cells per well and allowed to differentiate in RPMI-1640 media (ATCC Cat #30-2001) containing 10% FBS, 100 IU/mL penicillin, 100 ug/mL streptomycin, 100 ng/mL LPS and 100 ng/mL IFN-γ for 16 hours. Following differentiation, the cells are treated for an additional 2 hours in RPMI-1640 media containing 100 IU/mL penicillin, 100 ug/mL streptomycin and fresh LPS at 100 ng/mL. The cells are then pretreated for 30 minutes with the compound of interest at the appropriate concentration in RPMI media containing 100 IU/mL penicillin, 100 ug/mL streptomycin. Following the pretreatment 2′,3′-O-(4-benzoylbenzoyl)-adenosine 5′-triphosphate (Sigma Aldrich Cat # B6396) is added to a final concentration of 250 uM, and the cells are incubated for an additional 45 minutes. 30 uL of cell supernatant is then collected and IL-1β levels are determined via ELISA (R&D systems Cat. # HSLB50) according to manufacturer's recommendations using a Tecan Safire plate reader. Background adjusted IL-1β levels of drug treated and non-treated cells are used to calculate the percent inhibition.
The following compounds have been or can be prepared according to the synthetic methods described herein for example, methods A-AA1. The compounds set forth in Table 1 were tested for activity in a cellular model as described herein. Specifically, cells were pretreated with differing amounts of the compound under test and released IL-1β determined as in Example 9, above. Measurements were made and IC50 values, presented in Table 1, below, were determined by fitting the data to a four parameter logistic equation using GraphPad Prism software (GraphPad Software, Inc). The equation may be expressed by the following formula: Y=Bottom+(Top−Bottom)/(1+10^((Log EC50−X)*HillSlope)) where X is the logarithm of concentration, Y is the response and Y starts at Bottom and goes to Top with a sigmoid shape.

Row | Structure (SMILES) | IC50
1 | C[C@H](CO)n1ccc2c(C(=O)NCC3(O)CCCCC3)c(Cl)ccc2c1=O [Compound 57, 6-Chloro-2-((R)-2-hydroxy-1-methyl-ethyl)-1-oxo-1,2-dihydro-isoquinoline-5-carboxylic acid (1-hydroxy-cyclohexylmethyl)-amide] | 5 nM
2 | C[C@H](CO)n1ccc2c(NC(=O)Cc3ccc(Cl)c(Cl)c3)c(Cl)ccc2c1=O [Compound 12, N-[6-Chloro-2-((R)-2-hydroxy-1-methyl-ethyl)-1-oxo-1,2-dihydro-isoquinolin-5-yl]-2-(3,4-dichloro-phenyl)-acetamide] | 13 nM
3 | C[C@@H](C(N)=O)n1ccc2c(NC(=O)Cc3ccc(C(F)(F)F)cc3)c(Cl)ccc2c1=O [Compound 8, (S)-2-{6-Chloro-1-oxo-5-[2-(4-trifluoromethyl-phenyl)-acetylamino]-1H-isoquinolin-2-yl}-propionamide] | 113 nM
4 | CNCCn1ccc2c(NC(=O)Cc3ccc(C(F)(F)F)c(F)c3)c(C)ccc2c1=O [Compound 38, 2-(3-Fluoro-4-trifluoromethyl-phenyl)-1-[6-methyl-2-(2-methylamino-ethyl)-1-oxo-1,2-dihydroisoquinolin-5-yl]-acetamide] | 43 nM
5 | O=C(Cc1cccc(C(F)(F)F)c1F)Nc1c(NCCO)ccc2c(=O)n(CCO)ccc12 [Compound 18, 2-(2-Fluoro-3-trifluoromethyl-phenyl)-N-[2-(2-hydroxy-ethyl)-6-(2-hydroxy-ethylamino)-1-oxo-1,2-dihydro-isoquinolin-5-yl]-acetamide] | 1670 nM
6 | C[C@H](CO)n1ccc2c(NC(=O)Cc3ccc(C(F)(F)F)c(F)c3)c(C3CC3)ccc2c1=O [Compound 17, N-[6-Cyclopropyl-2-((R)-2-hydroxy-1-methyl-ethyl)-1-oxo-1,2-dihydro-isoquinolin-5-yl]-2-(3-fluoro-4-trifluoromethyl-phenyl)-acetamide] | 9 nM
7 | C[C@H](CO)n1ccc2c(NC(=O)Cc3ccc(C(F)(F)F)cc3F)c(Cl)ccc2c1=O [Compound 14, N-[6-Chloro-2-((R)-2-hydroxy-1-methyl-ethyl)-1-oxo-1,2-dihydro-isoquinolin-5-yl]-2-(2-fluoro-4-trifluoromethyl-phenyl)-acetamide] | 31 nM
8 | C[C@H](CO)n1ccc2c(C(=O)NCC3(O)CCC(F)CC3)c(Cl)ccc2c1=O (stereo partly shown) [Compound 69] | 6 nM
9 | C[C@H](CO)n1ccc2c(NC(=O)Cc3cccc(C(F)(F)F)c3)c(Cl)ccc2c1=O [Compound 39, N-[6-Chloro-2-((R)-2-hydroxy-1-methyl-ethyl)-1-oxo-1,2-dihydro-isoquinolin-5-yl]-2-(3-trifluoromethyl-phenyl)-acetamide] | 1 nM
10 | C[C@H](C(=O)Nc1c(Cl)ccc2c(=O)n([C@H](C)C(N)=O)ccc12)c1ccc(Cl)cc1 [Compound 4, (R)-2-{6-Chloro-5-[(S)-2-(4-chloro-phenyl)-propionylamino]-1-oxo-1H-isoquinolin-2-yl}-propionamide] | 18 nM
11 | Cc1ccc2c(=O)n(C(CO)CO)ccc2c1NC(=O)Cc1ccc(C(F)(F)F)c(F)c1 [Compound 62, 2-(3-Fluoro-4-trifluoromethyl-phenyl)-N-[2-(2-hydroxy-1-hydroxymethyl-ethyl)-6-methyl-1-oxo-1,2-dihydro-isoquinolin-5-yl]-acetamide] | 30 nM
12 | Cc1ccc2c(=O)n(CCO)ccc2c1NC(=O)Cc1ccc(F)c(C(F)(F)F)c1 [Compound 27, 2-(4-Fluoro-3-trifluoromethyl-phenyl)-N-[2-(2-hydroxy-ethyl)-6-methyl-1-oxo-1,2-dihydro-isoquinolin-5-yl]-acetamide] | 7 nM
13 | C[C@@H](CO)n1ccc2c(NC(=O)Cc3ccc(C(F)(F)F)c(F)c3)c(Cl)ccc2c1=O [Compound 34, N-[6-Chloro-2-((S)-2-hydroxy-1-methyl-ethyl)-1-oxo-1,2-dihydro-isoquinolin-5-yl]-2-(3-fluoro-4-trifluoromethyl-phenyl)-acetamide] | 23 nM
